Assays:
[1] = Brain and serum tyrosine in fasted rats given tyrosine alone or tyrosine and glucose (Example III, Table 2); assay type: in vivo, Sprague-Dawley rats; conditions: tyrosine 100 mg/kg alone; 90 min
in vivo = conditions: rat, po, 100 mg/kg
[2] = Brain and plasma tyrosine ratios in fasted rats, tyrosine and glucose given concurrently (Example II, second set); conditions: rat, brain, po, 100 mg/kg

Compound: N[C@@H](Cc1ccc(O)cc1)C(=O)O [Tyrosine, tyrosine]
- Brain Tyrosine [1]: 23.0 ± 2.2 µg/mL
- Brain/Serum (tyrosine) [1]: 1.02 ± 0.1
- Serum Tyrosine/Serum LNAA [1]: .304
- Kp at 1 h (in vivo; brain): 0.78
- concentration at 1 h (in vivo; serum): 20900 ng/mL
- Kp at […] [2]: 0.77
